In PubChem BioAssay AID1259407 (Chemical Carcinogenesis Research Information System (CCRIS), 2018):
“Also recorded” adds a separate entry of the source. The source made the active and inactive calls. The rule behind the calls is not given here.

Test system: CCRIS mutagenicity, Ames/micronucleus/aberration tests
Test: CCRIS mutagenicity studies

Compound: COc1cc2c(c3oc(=O)c4c(c13)CCC4=O)[C@@H]1C=CO[C@@H]1O2
- mutagenic call (Test System: AMES SALMONELLA TYPHIMURIUM, Strain/Indicator: TA100, Metabolic Activation: MOUSE, LIVER, MICROSOMES, BENZO[E]PYRENE AND TCDD, Method: STANDARD PLATE): active; positive
- mutagenic call (Test System: AMES SALMONELLA TYPHIMURIUM, Strain/Indicator: TA100, Metabolic Activation: RABBIT, LUNG, CLARA CELL-RICH FRACTION, Method: PREINCUBATION): active; positive
- mutagenic call (Test System: AMES SALMONELLA TYPHIMURIUM, Strain/Indicator: TA100, Metabolic Activation: RAT LIVER S-9, DELOR 103, Method: STANDARD PLATE): active; positive
- mutagenic call (Test System: AMES SALMONELLA TYPHIMURIUM, Strain/Indicator: TA100, Metabolic Activation: RAT LIVER S-9, DELOREM 103, Method: STANDARD PLATE): active; positive
- mutagenic call (Test System: AMES SALMONELLA TYPHIMURIUM, Strain/Indicator: TA100, Metabolic Activation: RAT, LIVER, MICROSOMES, PHENOBARBITAL, Method: STANDARD PLATE): active; positive
- mutagenic call (Test System: AMES SALMONELLA TYPHIMURIUM, Strain/Indicator: TA100, Metabolic Activation: RAT, LIVER, S-9, ACRYLAMIDE, Method: STANDARD PLATE): active; positive
- mutagenic call (Test System: AMES SALMONELLA TYPHIMURIUM, Strain/Indicator: TA100, Metabolic Activation: RAT, LIVER, S-9, AROCLOR 1254, Method: MICROSUSPENSION): active; positive
- mutagenic call (Test System: AMES SALMONELLA TYPHIMURIUM, Strain/Indicator: TA100, Metabolic Activation: RAT, LIVER, S-9, AROCLOR 1254, Method: PREINCUBATION): active; positive
- mutagenic call (Test System: AMES SALMONELLA TYPHIMURIUM, Strain/Indicator: TA100, Metabolic Activation: RAT, LIVER, S-9, AROCLOR 1254, Method: STANDARD PLATE): active; positive
- mutagenic call (Test System: AMES SALMONELLA TYPHIMURIUM, Strain/Indicator: TA100, Metabolic Activation: RAT, LIVER, S-9, PHENOBARBITAL, Method: PREINCUBATION): active; positive
- mutagenic call (Test System: AMES SALMONELLA TYPHIMURIUM, Strain/Indicator: TA100, Metabolic Activation: RAT, LIVER, S-9, PHENOBARBITAL, Method: STANDARD PLATE): active; positive
- mutagenic call (Test System: AMES SALMONELLA TYPHIMURIUM, Strain/Indicator: TA1538, Metabolic Activation: RAT, LIVER, S-9, AROCLOR 1254, Method: STANDARD PLATE): active; positive
- mutagenic call (Test System: Ames Salmonella typhimurium, Strain/Indicator: TA98, Metabolic Activation: Rat, Liver, S-9, Aroclor 1254, Method: Preincubation): active; positive (decrease in mutagenicity when 0.99-15.90 mg/plate of chloroform extrac; also recorded: active; positive (decrease in mutagenicity when 0.46-7.30 mg/plate of methanol extract o
- mutagenic call (Test System: Ames Salmonella typhimurium, Strain/Indicator: TA100, Metabolic Activation: Rat, Liver, S-9, Aroclor 1254, Method: Preincubation): active; positive (decrease in mutagenicity when 0.46-7.30 mg/plate of methanol extract o
- mutagenic call (Test System: CHINESE HAMSTER V-79, Strain/Indicator: V-79/6-THIOGUANINE, Metabolic Activation: NONE, Method: STANDARD PLATE): inactive; negative
- mutagenic call (Test System: CHINESE HAMSTER V-79, Strain/Indicator: V-79/6-THIOGUANINE, Metabolic Activation: RAT, HEPATOCYTES, BUTYLATED HYDROXYANISOLE, Method: STANDARD PLATE): active; positive
- mutagenic call (Test System: CHINESE HAMSTER V-79, Strain/Indicator: V-79/6-THIOGUANINE, Metabolic Activation: RAT, HEPATOCYTES, Method: STANDARD PLATE): active; positive
- mutagenic call (Test System: CHINESE HAMSTER V-79, Strain/Indicator: V-79/6-THIOGUANINE, Metabolic Activation: RAT, LIVER, S-9, PHENOBARBITAL, Method: STANDARD PLATE): active; positive
- mutagenic call (Test System: CHINESE HAMSTER V-79, Strain/Indicator: V-79/OUABAIN, Metabolic Activation: CELL-MEDIATED, Method: STANDARD PLATE): active; positive
- mutagenic call (Test System: CHINESE HAMSTER V-79, Strain/Indicator: V-79/OUABAIN, Metabolic Activation: NONE, Method: STANDARD PLATE): inactive; negative
- mutagenic call (Test System: CHINESE HAMSTER V-79, Strain/Indicator: V-79/OUABAIN, Metabolic Activation: RAT, HEPATOCYTES, BUTYLATED HYDROXYANISOLE, Method: STANDARD PLATE): active; positive
- mutagenic call (Test System: CHINESE HAMSTER V-79, Strain/Indicator: V-79/OUABAIN, Metabolic Activation: RAT, HEPATOCYTES, Method: STANDARD PLATE): active; positive
- mutagenic call (Test System: UDS GUINEA PIG HEPATOCYTES, Strain/Indicator: THY INCORP, Metabolic Activation: NONE, Method: AUTORADIOGRAPHY): active; positive
- mutagenic call (Test System: UDS HUMAN CELLS, Strain/Indicator: THY INCORP (NON-S-PHASE), Metabolic Activation: RAT, LIVER, S-9, PHENOBARBITAL, Method: LIQUID SCINTILLATION COUNTING): active; positive
- mutagenic call (Test System: UDS HUMAN FIBROBLASTS, Strain/Indicator: THY INCORP (NON-S-PHASE), Metabolic Activation: MOUSE, LIVER, S-9, Method: AUTORADIOGRAPHY): active; positive
- mutagenic call (Test System: UDS HUMAN FIBROBLASTS, Strain/Indicator: THY INCORP (NON-S-PHASE), Metabolic Activation: NONE, Method: AUTORADIOGRAPHY): active; positive
- mutagenic call (Test System: UDS HUMAN FIBROBLASTS, Strain/Indicator: THY INCORP (NON-S-PHASE), Metabolic Activation: NONE, Method: LIQUID SCINTILLATION COUNTING): active; positive
- mutagenic call (Test System: UDS HUMAN HEPATOCYTES, Strain/Indicator: THY INCORP, Metabolic Activation: NONE, Method: AUTORADIOGRAPHY): active; positive
- mutagenic call (Test System: UDS MONKEY HEPATOCYTES, Strain/Indicator: THY INCORP, Metabolic Activation: NONE, Method: AUTORADIOGRAPHY): active; positive
- mutagenic call (Test System: UDS RAT HEPATOCYTES, Strain/Indicator: BROMODEOXYURIDINE INCORP, Metabolic Activation: NONE, Method: FLOW CYTOMETRIC ANALYSIS): active; positive
- mutagenic call (Test System: UDS RAT HEPATOCYTES, Strain/Indicator: THY INCORP, Metabolic Activation: AROCLOR 1254, Method: AUTORADIOGRAPHY): active; positive
- mutagenic call (Test System: UDS RAT HEPATOCYTES, Strain/Indicator: THY INCORP, Metabolic Activation: NONE, Method: AUTORADIOGRAPHY): active; positive
- mutagenic call (Test System: UDS RAT HEPATOCYTES, Strain/Indicator: THY INCORP, Metabolic Activation: NONE, Method: LIQUID SCINTILLATION COUNTING): active; positive
- mutagenic call (Test System: UDS RODENT HEPATOCYTES, Strain/Indicator: THY INCORP (NON-S-PHASE), Method: AUTORADIOGRAPHY): active; positive
- mutagenic call (Test System: UDS RODENT HEPATOCYTES, Strain/Indicator: THY INCORP (NON-S-PHASE), Method: LIQUID SCINTILLATION COUNTING): active; positive
- mutagenic call (Test System: UDS RODENT PRIMARY CELLS, Strain/Indicator: THY INCORP (NON-S-PHASE), Metabolic Activation: NONE, Method: AUTORADIOGRAPHY): active; positive
